Measured values: patent US20160038519A1, “ADMINISTRATION OF KARENITECIN FOR THE TREATMENT OF ADVANCED OVARIAN CANCER, INCLUDING CHEMOTHERAPY-RESISTANT AND/OR THE MUCINOUS ADENOCARCINOMA SUB-TYPES” (BioNumerik Pharmaceuticals, Inc., priority 2014, published 2016)
Read-outs that look alike come from different tables or passages of the source.

Assays:
MDR-expressing sublines = details: comparison studies; cited from earlier work
human cancer cell lines = experiment: Paclitaxel- and platinum-induced cytotoxicity; format: cell-based
From the text: (§1) Tavocept mediates the non-enzymatic xenobiotic modification of sulfur-containing amino acid residues (e.g., cysteine) on proteins. As an engineered, non-naturally occurring agent (i.e., xenobiotic), Tavocept is autocatalytic and requires no protein cofactor to cause the xenobiotic modification of cysteine, but appears to be specific for cysteine residues located within a particular structural context (i.e., not all cysteines in a protein are so modified). Tavocept-mediated, xenobiotic modification represents a novel mechanism of action for a cancer treating agent and can be compared, to a degree, with post-translational modifications of cysteine residues in proteins (see, Table 3, below). By way of non-limiting example, some of the important elements of Tavocept's effectiveness as a compound in the treatment of cancer are its selectivity for normal cells versus cancer cells and its absence of interference with the anti-cancer activity of cancer treating agents.

[1] = tested on: mucinous cell lines (JHOM2B, OMC3, and COV644); experiment: SRB assay, joint statements for the mucinous cell lines incl. effect of BNP7787 on BNP1350-induced cytotoxicity; format: cell-based, human
Description: (§2) In vitro studies were conducted in human mucinous ovarian cancer cell lines including JHOM2B, OMC3, and COV644. In one series of experiments, the dose response curves for BNP1350 (also known as Karenitecin), SN-38 (Irinotecan), and Topotecan were obtained and IC50 values were determined. In a second series of experiments, the effect of BNP7787 (2,2′-dithio-bis-ethane sulfonate; Tavocept) on BNP1350-induced cytotoxicity at selected BNP1350 concentrations was examined.
The JHOM2B and OMC3 cell lines were purchased from Riken Cell Bank (Japan). The COV644 cell line was purchased from SigmaAldrich. Cells were maintained as monolayered cultures in T-75 flasks and then seeded to microtiter plate wells for experiments. Population doubling-times for these three cell lines were long (i.e., exceeding 40 hours, and for some of the cell lines approaching 96 hours); therefore, the Applicants conducted initial pilot experiments and determined optimal seeding density to obtain A570 values in untreated controls that would fall within the linear range of the SRB assay after seven (7) total days of cell growth. […]
The cells were manipulated in a Microzone laminar flow hood traditionally used for maintaining aseptic environments around automated instrumentation such as microplate robots, and the like. […] Cells were counted using a ViCell counter (Beckman-Coulter). An automated plate washer/stacker (ELx405/BioStak from BioTek Instruments) and a microplate reader (SpectraMax Plus from Molecular Devices) were used for conducting the SRB assay and determining A570 values for wells in the plates and the percentage of control values. Prior to SRB assays, cell viability was monitored by evaluation of microtiter plate wells. […]
The sulforhodamine B (SRB) cytotoxicity assay was used to assess cell survival. […] Plates were agitated (gently) for 5 minutes and the absorbance values of the SRB dye-protein adduct at 570 nanometers (A570) were determined using an automated microtiter plate reader (SpectraMax Plus, Molecular Devices). […]

[2] = tested on: human breast, ovarian and lymphoma cancer cell lines; experiment: Paclitaxel induced apoptosis (PARP cleavage, Bcl-2 phosphorylation, DNA laddering); format: cell-based
From the text: as §1

[3] = human, in vivo; cited from earlier work
COV644 Cell Line = experiment: SRB cytotoxicity assay, COV644; format: cell-based, human; details: 2, 5, and 6 hour drug exposures
Description: as §2
(§3) The JHOM2B and OMC3 cell lines were purchased from Riken Cell Bank (Japan). The COV644 cell line was purchased from SigmaAldrich. Cells were maintained as monolayered cultures in T-75 flasks and then seeded to microtiter plate wells for experiments. Population doubling-times for these three cell lines were long (i.e., exceeding 40 hours, and for some of the cell lines approaching 96 hours); therefore, the Applicants conducted initial pilot experiments and determined optimal seeding density to obtain A570 values in untreated controls that would fall within the linear range of the SRB assay after seven (7) total days of cell growth. JHOM2B cells were cultured in DMEM:F12 (1:1)+0.1 mM non-essential amino acids (NEAA)+10% FBS and were seeded at 6,000 cells per well. OMC3 cells were cultured in HamF12+10% FBS and were seeded at 8,000 cells per well. COV644 cells were cultured in DMEM+2 mM glutamine+10% FBS and were seeded at 6,000 cells per well.
(§4) The cells were manipulated in a Microzone laminar flow hood traditionally used for maintaining aseptic environments around automated instrumentation such as microplate robots, and the like. Cells were grown and maintained at 37° C. in a humidified atmosphere containing 5% CO2 in a water jacketed cell culture incubator (Forma Scientific). Cells were counted using a ViCell counter (Beckman-Coulter). An automated plate washer/stacker (ELx405/BioStak from BioTek Instruments) and a microplate reader (SpectraMax Plus from Molecular Devices) were used for conducting the SRB assay and determining A570 values for wells in the plates and the percentage of control values. Prior to SRB assays, cell viability was monitored by evaluation of microtiter plate wells. Dead cells detach and float while living cells remain attached to the bottom of the cell well.
(§5) SN-38 (Irinotecan; Sigma H0165, lot MKBQ4981) and Topotecan (Sigma T2705, lot 052M4728V) were purchased from SigmaAldrich. BNP1350 (lot KN-C192-135) and BNP7787 (lot 205001) were synthesized at BioNumerik Pharmaceuticals, Inc. (San Antonio, Tex.). BNP1350, SN38, and Topotecan were prepared as 2.5, 2.5, and 25 mM stocks in DMSO (ATCC, cell culture grade).
(§6) The sulforhodamine B (SRB) cytotoxicity assay was used to assess cell survival. Briefly, after the medium was decanted from individual plate wells, trichloroacetic acid (100 μL of 10.0 percent solution) was added to each well, and the plates were incubated at 4° C. for 1 hour. The plates were washed five times with water using an automated microplate washer (Model ELx405, Bio-Tek Instruments), SRB solution (100 μL of 0.4% SRB dissolved in 1.0 percent acetic acid) was added, and plates remained at room temperature for 15 minutes. The plates were then washed five times using acetic acid (1.0 percent), air dried, and bound dye was solubilized in Tris base (150 μL, 10 mM). Plates were agitated (gently) for 5 minutes and the absorbance values of the SRB dye-protein adduct at 570 nanometers (A570) were determined using an automated microtiter plate reader (SpectraMax Plus, Molecular Devices). IC50 values were extrapolated from dose response curves of the data using OriginLab Software.
(§7) The 1050 values exceeded the solubility in medium for each compound—the limit of solubility in cell culture medium for the compounds were as follows: 2 micromolar for BNP1350 and SN38, and 20 micromolar for Topotecan. Cells were treated for periods of 2.5 hours or 6 hours and, in each case, the […] values were not reached. Longer treatments were not performed.

JHOM2B Cell Line = experiment: SRB cytotoxicity assay, JHOM2B; format: cell-based, human
Description: as §2, §3, §4, §5, §6

[4] = Limit of solubility in cell culture medium; format: physicochemical
Description: as §7

OMC3 Cell Line = experiment: SRB cytotoxicity assay, OMC3; format: cell-based, human
Description: as §2, §3, §4, §5, §6

[5] = 2 hour drug exposure, read-out: IC50, Test 1 (2 replicate plates)
[6] = 2 hour drug exposure, read-out: IC50, Test 2 (3 replicate plates)

## CC[C@@]1(O)C(=O)OCc2c1cc1n(c2=O)Cc2cc3c(N)cccc3nc2-1 [9-aminocamptothecin, 9-amino-camptothecin]
MDR-expressing sublines
  Resistance of MDR-expressing sublines relative to parental wild-type cells: two-fold more resistant

## CC[C@@]1(O)C(=O)OCc2c1cc1n(c2=O)Cc2cc3cc4c(cc3nc2-1)OCO4 [10,11-methylenedioxycamptothecin]
MDR-expressing sublines
  Resistance of MDR-expressing sublines relative to parental wild-type cells: No increase in resistance

## O=S(=O)([O-])CCSSCCS(=O)(=O)[O-].[Na+].[Na+] [BNP7787, 2,2′-dithio-bis-ethane sulfonate]
Human cancer cell lines
  Interference with paclitaxel- and platinum-induced cytotoxicity: not to interfere
[1]; BNP7787 1 or 10 mM added simultaneously with approximate IC50 and IC25 values of BNP1350, each cell line
  Effect on BNP1350-induced cytotoxicity: no notable effect
[1]; BNP7787 alone, 1 and 10 mM
  Effect on cell survival as single agent: did not affect cell survival
[2]
  Interference with paclitaxel induced apoptosis: does not interfere

## Nc1ccn([C@@H]2O[C@H](CO)[C@@H](O)C2(F)F)c(=O)n1 [Gemcitabine]
[3]
  Subjects with neutropenia: up to 90%

## CCc1c2c(nc3ccc(O)cc13)-c1cc3c(c(=O)n1C2)COC(=O)[C@]3(O)CC [SN38]
COV644 Cell Line; did not reach 50% of Control, read-out: IC50, Test 1 (2 replicate plates)
  IC50: > 2000 nM
COV644 Cell Line; did not reach 50% of Control, read-out: IC50, Test 2 (2 to 3 replicate plates)
  IC50: > 2000 nM
COV644 Cell Line; read-out: IC50, Average
  IC50: > 2000 nM
JHOM2B Cell Line; 2 hour drug exposure, average of Test 1 and Test 2, read-out: IC50, Average
  IC50: 666 nM
JHOM2B Cell Line; [5]
  IC50: 610 ± 130 nM
JHOM2B Cell Line; [6]
  IC50: 723 ± 28 nM
JHOM2B Cell Line; read-out: IC50 values
  IC50: 667 nM
[4]
  Limit of solubility in cell culture medium: 2 µM
OMC3 Cell Line; [5]
  IC50: 550 ± 60 nM
OMC3 Cell Line; [6]
  IC50: 580 ± 127 nM
OMC3 Cell Line; read-out: IC50 values
  IC50: 565 nM
